Test results from US11647750B2, “Active compound combinations having insecticidal/acaricidal properties” (Bayer Aktiengesellschaft, priority 2017, dated 2023).
Where two headings read alike, the source gives them in different places.

What was measured:
Assay type in all cases: in vivo
Myzus persicae = Myzus persicae spray test (Chinese cabbage leaf disks); conditions: mortality
Experimental: (§1) • The expected efficacy of a given combination of two compounds is calculated as follows (see Colby, S. R., “Calculating Synergistic and antagonistic Responses of Herbicide Combinations”, Weeds 15, pp. 20-22, 1967): • If • X is the efficacy expressed in % mortality of the untreated control for test compound A at a concentration of m ppm respectively m g/ha, • Y is the efficacy expressed in % mortality of the untreated control for test compound B at a concentration of n ppm respectively n g/ha, • E is the efficacy expressed in % mortality of the untreated control using the mixture of A and B at m and n ppm respectively m and n g/ha, • then is
(§2) [formula] • If the observed insecticidal efficacy of the combination is higher than the one calculated as “E”, then the combination of the two compounds is more than additive, i.e. there is a synergistic effect.
Myzus persicae Spray Test
(§3) • Solvent: 78.0 parts by weight acetone 1.5 parts by weight dimethylformamide • Emulsifier: alkylarylpolyglycol ether
(§4) To produce a suitable preparation of active compound, 1 part by weight of active compound is mixed with the stated amount of solvents and is diluted with water, containing an emulsifier concentration of 1000 ppm, to the desired concentration. To produce a suitable preparation of a spore suspension the spores are diluted with emulsifier containing water to the desired concentration. Further test concentrations are prepared by dilution with emulsifier containing water.
Chinese cabbage (Brassica pekinensis) leaf disks infected with all instars of the green peach aphid (Myzus persicae), are sprayed with a preparation of the active ingredient of the desired concentration.
After the specified period of time, mortality in % is determined. 100% means all aphids have been killed; 0% means none of the aphids have been killed. The mortality values determined thus are recalculated using the Colby-formula (see above).

Tetranychus urticae [1] = assay: Tetranychus urticae spray test, OP-resistant (French bean leaf disks)
Experimental: as §1, §2
Tetranychus urticae—Spray Test OP-Resistant
as §3, §4
French bean (Phaseolus vulgaris) leaf disks infected with all instars of the two spotted spidermite (Tetranychus urticae), are sprayed with a preparation of the active ingredient of the desired concentration.
After the specified period of time, mortality in % is determined. 100% means all spider mites have been killed and 0% means none of the spider mites have been killed. The mortality values determined thus are recalculated using the Colby-formula (see above).

Tetranychus urticae [2] = assay: Tetranychus urticae spray test; OP-resistant (bean plants); conditions: mortality
Experimental: as §1, §2
Tetranychus urticae Spray Test; OP-Resistant
Solvent: 7 parts by weight of dimethylformamide
Emulsifier: alkylaryl polyglycol ether
To produce a suitable preparation of active compound, 1 part by weight of active compound is mixed with the stated amount of solvent and is diluted with water, containing an emulsifier concentration of 1000 ppm, to the desired concentration. Further test concentrations are prepared by dilution with emulsifier containing water.
Bean plants (Phaseolus vulgaris) which are heavily infested with all stages of the two-spotted spider mite (Tetranychus urticae) are treated by being sprayed with the preparation of the active compound of the desired concentration.
After the specified period of time mortality in % is determined. 100% means all the spider mites have been killed and 0% means none of the spider mites have been killed. The mortality values determined thus are recalculated using the Colby-formula (see above).

Meloidogyne incognita = Meloidogyne incognita test (gall formation on salad roots); conditions: nematicidal activity on the basis of gall formation
Experimental: as §1, §2
Meloidogyne incognita—Test
Solvent: 125.0 parts by weight of acetone
To produce a suitable preparation of active compound, 1 part by weight of active compound is mixed with the stated amount of solvent, and the concentrate is diluted with water to the desired concentration. To produce a suitable preparation of a spore suspension the spores are diluted with water to the desired concentration.
Vessels are filled with sand, a solution of the active ingredient, a suspension containing eggs and larvae of the southern root-knot nematode (Meloidogyne incognita) and salad seeds. The salad seeds germinate and the seedlings grow. Galls develop in the roots.
After the specified period of time nematicidal activity is determined on the basis of the percentage of gall formation. 100% means no galls were found and 0% means the number of galls found on the roots of the treated plants was equal to that in untreated control plants.

[3] = Tetranychus urticae, foliar, 144 h, 0.5 g ai/ha, mortality, 6 days, read-out: Efficacy in % after 6 days
[4] = Tetranychus urticae, foliar, 144 h, 0.6 g ai/ha, mortality, 6 days, read-out: Efficacy in % after 6 days
[5] = Tetranychus urticae, foliar, 144 h, read-out: Efficacy in % after 6 days

Compound: Cc1cc(F)c(N=C2SCC(=O)N2CC(F)(F)F)cc1[S+]([O-])CC(F)(F)F (centres unmarked) [Cpd of formula (I)]
- Efficacy in % after 6 days (Myzus persicae; 2 g ai/ha): 0%
- Efficacy in % after 6 days (Myzus persicae; 8 g ai/ha): 0%
- Efficacy in % after 2 days (Tetranychus urticae [1]; 0.125 g ai/ha, mortality): 0%
- Efficacy in % after 2 days (Tetranychus urticae [1]; 0.5 g ai/ha, mortality): 0%
- pest or weed control at 0.125 g/ha (Tetranychus urticae [1]; Tetranychus urticae, foliar, 144 h, 0.125 g ai/ha, mortality, 6 days, read-out: Efficacy in % after 6 days): 0%
- pest or weed control at 0.3 g/ha (Tetranychus urticae [1]; Tetranychus urticae, foliar, 144 h, 0.3 g ai/ha, mortality, 6 days, read-out: Efficacy in % after 6 days): 0%
- pest or weed control at 0.5 g/ha (Tetranychus urticae [1]; [3]): 0%
- pest or weed control at 0.6 g/ha (Tetranychus urticae [1]; [4]): 0%
- Efficacy in % after 3 days (Tetranychus urticae [2]; 0.4 ppm): 0%
- Efficacy in % after 7 days (Tetranychus urticae [2]; 0.8 ppm): 30%
- Efficacy in % after 14 days (Meloidogyne incognita; 1 ppm): 0%
- Efficacy in % after 14 days (Meloidogyne incognita; 2 ppm): 70%

Compound: Cc1cc(C)c(C2=C(OC(=O)CC(C)(C)C)C3(CCCC3)OC2=O)c(C)c1 [Spiromesifen, 3-mesityl-2-oxo-1-oxaspiro[4.4]non-3-en-4-yl 3,3-dimethylbutyrate]
- Efficacy in % after 2 days (Tetranychus urticae [1]; 0.05 g ai/ha, mortality): 0%
- pest or weed control at 0.05 g/ha (Tetranychus urticae [1]; [5]): 0%
- pest or weed control at 0.6 g/ha (Tetranychus urticae [1]; [5]): 0%

Compound: Cc1cc(Cl)cc(C)c1C1=C(O)C2(CCC3(CC2)OCCO3)NC1=O [Cpd of formula (IIa)]
- Efficacy in % after 6 days (Myzus persicae; 16 g ai/ha): 0%
- Efficacy in % after 2 days (Tetranychus urticae [1]; 1 g ai/ha, mortality): 0%
- pest or weed control at 1 g/ha (Tetranychus urticae [1]; Tetranychus urticae, foliar, 144 h, 1 g ai/ha, mortality, 6 days, read-out: Efficacy in % after 6 days): 0%

Compound: Cc1nn(C)c(/C(OC(=O)C(C)(C)C)=C(\C#N)c2ccc(C(C)(C)C)cc2)c1C [Cyenopyrafen, (E)-2-(4-tert-butylphenyl)-2-cyano-1-(1,3,4-trimethylpyrazol-5-yl)vinyl 2,2-dimethylpropionate]
- Efficacy in % after 6 days (Myzus persicae; 0.5 g ai/ha): 0%
- Efficacy in % after 6 days (Myzus persicae; 2 g ai/ha): 0%
- pest or weed control at 0.125 g/ha (Tetranychus urticae [1]; [5]): 0%

Compound: Cc1ccc(-c2ccc(F)cc2)c(C)c1C1=C(O)C2(CCOCC2)NC1=O [Cpd of formula (IIb)]
- Efficacy in % after 2 days (Tetranychus urticae [1]; 0.5 g ai/ha, mortality): 0%
- pest or weed control at 0.5 g/ha (Tetranychus urticae [1]; [3]): 0%

Compound: abamectin
- Efficacy in % after 2 days (Tetranychus urticae [1]; 0.00125 g ai/ha, mortality): 0%
- Efficacy in % after 6 days (Tetranychus urticae [1]; 0.015 g ai/ha, mortality, 6 days): 70%
- Efficacy in % after 6 days (Tetranychus urticae [1]; 0.03 g ai/ha, mortality, 6 days): 70%
- Efficacy in % after 3 days (Tetranychus urticae [2]; 0.01 ppm): 0%

Compound: emamectin benzoate [Emamectin-benzoate]
- Efficacy in % after 2 days (Tetranychus urticae [1]; 0.003125 g ai/ha, mortality): 0%
- Efficacy in % after 6 days (Tetranychus urticae [1]; 0.003125 g ai/ha, mortality, 6 days): 0%
- Efficacy in % after 2 days (Tetranychus urticae [1]; 0.0125 g ai/ha, mortality): 0%
- Efficacy in % after 6 days (Tetranychus urticae [1]; 0.0125 g ai/ha, mortality, 6 days): 0%
- Efficacy in % after 6 days (Tetranychus urticae [1]; 0.15 g ai/ha, mortality, 6 days): 0%

Compound: CCOC(=O)OC1=C(c2cc(C)ccc2C)C(=O)N[C@]12CC[C@@H](OC)CC2 [Spirotetramat, cis-4-(ethoxycarbonyloxy)-8-methoxy-3-(2,5-xylyl)-1-azaspiro[4.5]dec-3-en-2-one]
- Efficacy in % after 2 days (Tetranychus urticae [1]; 0.05 g ai/ha, mortality): 0%
- pest or weed control at 0.05 g/ha (Tetranychus urticae [1]; [5]): 0%
- Efficacy in % after 7 days (Tetranychus urticae [2]; 2 ppm): 40%
- Efficacy in % after 14 days (Meloidogyne incognita; 30 ppm): 0%
- Efficacy in % after 14 days (Meloidogyne incognita; 60 ppm): 0%

Compound: spinosad
- Efficacy in % after 2 days (Tetranychus urticae [1]; 0.03125 g ai/ha, mortality): 0%
- Efficacy in % after 6 days (Tetranychus urticae [1]; 0.03125 g ai/ha, mortality, 6 days): 0%
- Efficacy in % after 6 days (Tetranychus urticae [1]; 0.125 g ai/ha, mortality, 6 days): 0%

Compound: COCCOC(=O)C(C#N)(C(=O)c1ccccc1C(F)(F)F)c1ccc(C(C)(C)C)cc1 (racemic) [Cyflumetofen, 2-methoxyethyl (RS)-2-(4-tert-butylphenyl)-2-cyano-3-oxo-3-(α,α,α-trifluoro-o-tolyl)propionate]
- Efficacy in % after 2 days (Tetranychus urticae [1]; 0.5 g ai/ha, mortality): 0%
- pest or weed control at 0.5 g/ha (Tetranychus urticae [1]; [5]): 0%

Compound: COC(c1ccc(N(C(=O)c2c(C)nn(C)c2C)C(=O)C(C)C)cc1CC(C)C)(C(F)(F)F)C(F)(F)F [Pyflubumide, 3′-isobutyl-N-isobutyryl-1,3,5-trimethyl-4′-[2,2,2-trifluoro-1-methoxy-1-(trifluoromethyl)ethyl]pyrazole-4-carboxanilide]
- Efficacy in % after 2 days (Tetranychus urticae [1]; 0.0125 g ai/ha, mortality): 0%
- pest or weed control at 0.0125 g/ha (Tetranychus urticae [1]; Tetranychus urticae, foliar, 144 h, 0.0125 g ai/ha, mortality, 6 days, read-out: Efficacy in % after 6 days): 0%
- pest or weed control at 0.6 g/ha (Tetranychus urticae [1]; [4]): 70%

Compound: milbemectin
- Efficacy in % after 6 days (Tetranychus urticae [1]; 0.75 g ai/ha, mortality, 6 days): 0%
- Efficacy in % after 6 days (Tetranychus urticae [1]; 1.5 g ai/ha, mortality, 6 days): 0%
